{"source": "patent US20100292183A1", "about": "“TETRACYCLINE AND USES THEREOF” (priority 2009, published 2010)", "key": {"[1]": {"conditions": "doses between 12.5 and 300 mg twice daily; cited from earlier work"}, "[2]": {"test_system": "induced mouse models of atherosclerosis", "test": "induced mouse models of atherosclerosis", "assay_type": "in vivo, mice", "excerpt": "Inducing atherosclerotic plaque development in mice is disclosed in details in U.S. patent application Ser. No. 12/286,368, which is herein incorporated by reference in its entirety. These mouse models are used for testing tetracycline-acenocoumorol conjugate to determine their efficacy both on reducing progression of plaque development and symptoms of chronic inflammation. Mice purchased from vendors are used for in vivo atherosclerotic plaque development by multiple doses of plaque complexes by intra-peritoneal and intravenous routes as described U.S. patent application Ser. No. 12/286,368. […] Ovastatin, an established anti-atherosclerotic drug (Schwartz et al, 2001) is used for control purposes in these studies and administered by oral route.\nOvastatin, tetracycline, clopidogrel or any anti-coagulant individually and tetracycline-clopidogrel (0.1-5 mg/kg per day) are orally administrated to the symptomatic and asymptomatic atherosclerotic mice models for 8 to 12 weeks. Following administration of the drugs, mice with asymptomatic plaque development are euthanized and blood collected via cardiac puncture. The blood samples will be used test clotting or blood coagulation test to analyse anti-coagulation efficacy of drugs used."}}}
{"smiles": "[H]/N=C(/N)c1ccc(NCc2nc3cc(C(=O)N(CCC(=O)O)c4ccccn4)ccc3n2C)cc1", "note": "[dabigatran]", "values": [{"measurement": "safety profile", "setting": "[1]", "result": "good safety profile"}]}
{"smiles": "CC[C@H](C)C(=O)O[C@H]1C[C@@H](C)C=C2C=C[C@H](C)[C@H](CC[C@@H]3C[C@@H](O)CC(=O)O3)[C@H]21", "note": "[ovastatin]", "values": [{"measurement": "plaque accumulation, histochemical analysis of heart tissues", "setting": "[2]; asymptomatic mice model, after treatment", "result": "reduced plaque accumulation"}, {"measurement": "symptoms of plaque inflammation", "setting": "[2]; mice with plaque induced chronic inflammation, compared to control animal without treatment", "result": "reduced symptoms of plaque inflammation"}]}
